In publication PMC11207571, “Applicability of MDR1 Overexpressing Abcb1KO-MDCKII Cell Lines for Investigating In Vitro Species Differences and Brain Penetration Prediction” (Pharmaceutics, 2024):

Experiments:
rat Mdr1a [1] = molecular target: T1, rat Mdr1a (Rattus norvegicus, UniProt Q6PSM0); test: Inhibition of 3H-digoxin or 3H-quinidine bidirectional transport in rMDR1 cells; format: cell-based; set-up: rat Mdr1a (NM_133401.1); expressed in transfected cells; host or cells: Abcb1KO-MDCKII (canine kidney, endogenous Abcb1 knocked out), transduced, single-cell clone; details: Inhibition of digoxin transport IC50±SD, rMDR1, probe 3H-digoxin 1 µM, 120 min; IC50 from ER
T1 sequence (Q6PSM0 1-1272): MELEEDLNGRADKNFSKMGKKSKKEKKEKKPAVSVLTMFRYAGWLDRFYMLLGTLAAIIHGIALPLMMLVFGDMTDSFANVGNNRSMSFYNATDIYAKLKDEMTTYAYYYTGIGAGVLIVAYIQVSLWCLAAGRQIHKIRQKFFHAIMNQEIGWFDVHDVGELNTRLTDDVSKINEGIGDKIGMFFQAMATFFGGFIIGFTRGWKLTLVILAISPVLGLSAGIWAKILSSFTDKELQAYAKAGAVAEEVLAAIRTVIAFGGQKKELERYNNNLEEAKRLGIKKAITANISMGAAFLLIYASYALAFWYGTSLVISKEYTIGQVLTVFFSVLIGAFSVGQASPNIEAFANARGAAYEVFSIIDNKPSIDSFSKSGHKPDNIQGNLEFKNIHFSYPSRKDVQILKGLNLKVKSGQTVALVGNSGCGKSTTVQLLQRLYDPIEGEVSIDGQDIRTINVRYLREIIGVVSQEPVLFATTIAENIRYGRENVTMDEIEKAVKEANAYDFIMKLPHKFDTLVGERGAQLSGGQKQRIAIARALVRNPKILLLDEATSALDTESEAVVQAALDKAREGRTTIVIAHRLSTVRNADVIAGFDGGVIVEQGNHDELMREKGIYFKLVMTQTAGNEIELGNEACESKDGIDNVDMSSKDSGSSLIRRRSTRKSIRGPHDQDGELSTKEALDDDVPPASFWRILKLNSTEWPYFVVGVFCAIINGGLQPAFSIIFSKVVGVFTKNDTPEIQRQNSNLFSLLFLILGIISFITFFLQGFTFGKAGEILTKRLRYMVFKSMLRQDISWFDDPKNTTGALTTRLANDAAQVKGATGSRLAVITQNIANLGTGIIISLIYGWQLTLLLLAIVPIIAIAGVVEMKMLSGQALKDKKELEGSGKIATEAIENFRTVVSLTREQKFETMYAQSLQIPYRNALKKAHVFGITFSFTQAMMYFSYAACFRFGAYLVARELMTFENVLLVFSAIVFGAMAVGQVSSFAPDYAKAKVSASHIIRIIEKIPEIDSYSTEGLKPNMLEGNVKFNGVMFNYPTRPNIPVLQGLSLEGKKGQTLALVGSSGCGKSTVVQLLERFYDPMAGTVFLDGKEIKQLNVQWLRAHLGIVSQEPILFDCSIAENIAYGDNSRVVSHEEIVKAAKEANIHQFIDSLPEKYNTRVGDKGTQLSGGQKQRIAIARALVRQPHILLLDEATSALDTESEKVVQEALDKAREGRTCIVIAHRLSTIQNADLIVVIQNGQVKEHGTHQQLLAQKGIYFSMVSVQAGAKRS

mouse Mdr1a [2] = molecular target: T2, mouse Mdr1a (Mus musculus, UniProt P21447); test: Inhibition of 3H-digoxin or 3H-quinidine bidirectional transport in mMDR1 cells; format: cell-based; set-up: mouse Mdr1a (NM_011076.3); expressed in transfected cells; host or cells: Abcb1KO-MDCKII (canine kidney, endogenous Abcb1 knocked out), transduced, single-cell clone; details: Inhibition of digoxin transport IC50±SD, mMDR1, probe 3H-digoxin 1 µM, 120 min; IC50 from ER
T2 sequence (P21447 whole entry): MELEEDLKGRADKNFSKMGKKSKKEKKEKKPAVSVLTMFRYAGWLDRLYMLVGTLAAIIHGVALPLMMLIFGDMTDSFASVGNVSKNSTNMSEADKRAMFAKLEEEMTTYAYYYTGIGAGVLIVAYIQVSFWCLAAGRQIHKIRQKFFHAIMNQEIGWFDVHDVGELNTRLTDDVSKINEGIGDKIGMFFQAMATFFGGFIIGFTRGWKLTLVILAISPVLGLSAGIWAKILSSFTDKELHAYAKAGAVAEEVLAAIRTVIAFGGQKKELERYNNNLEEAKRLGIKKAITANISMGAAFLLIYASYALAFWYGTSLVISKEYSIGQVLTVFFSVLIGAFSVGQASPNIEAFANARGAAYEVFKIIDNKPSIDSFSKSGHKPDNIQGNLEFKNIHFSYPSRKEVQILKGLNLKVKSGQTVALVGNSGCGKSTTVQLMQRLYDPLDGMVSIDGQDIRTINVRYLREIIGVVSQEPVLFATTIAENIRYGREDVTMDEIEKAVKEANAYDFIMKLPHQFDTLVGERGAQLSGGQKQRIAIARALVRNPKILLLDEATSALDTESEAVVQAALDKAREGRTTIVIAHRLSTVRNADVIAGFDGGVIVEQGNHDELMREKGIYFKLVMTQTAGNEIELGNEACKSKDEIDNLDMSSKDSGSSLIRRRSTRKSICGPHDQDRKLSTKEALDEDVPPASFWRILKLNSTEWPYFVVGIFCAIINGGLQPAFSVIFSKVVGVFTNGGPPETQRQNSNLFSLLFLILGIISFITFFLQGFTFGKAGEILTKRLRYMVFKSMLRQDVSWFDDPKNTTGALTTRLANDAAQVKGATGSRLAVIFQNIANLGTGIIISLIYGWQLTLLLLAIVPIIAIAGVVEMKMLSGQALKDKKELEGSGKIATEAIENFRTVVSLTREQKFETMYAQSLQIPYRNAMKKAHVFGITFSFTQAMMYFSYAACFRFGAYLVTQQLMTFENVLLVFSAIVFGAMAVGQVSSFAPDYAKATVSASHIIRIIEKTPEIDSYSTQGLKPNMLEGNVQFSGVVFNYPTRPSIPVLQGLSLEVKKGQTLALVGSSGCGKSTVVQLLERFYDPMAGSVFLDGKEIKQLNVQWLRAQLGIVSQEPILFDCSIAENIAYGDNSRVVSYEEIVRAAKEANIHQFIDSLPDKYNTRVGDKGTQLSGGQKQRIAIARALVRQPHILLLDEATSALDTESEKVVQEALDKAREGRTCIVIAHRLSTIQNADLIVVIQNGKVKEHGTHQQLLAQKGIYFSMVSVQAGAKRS

[3] = Bidirectional transport assay, efflux ratio in Abcb1KO-MDCKII-Mock control cells; details: dog, MDCK, pH 7.4
Method: (§1) Eluent A consisted of 0.1% formic acid in water, eluent B consisted of 0.1% formic acid in acetonitrile. Then, 10 µL samples were injected into the HPLC-MS/MS system. Mass spectrometric detection was performed in SRM mode, and ion transitions for each analyte were optimized during method development. Samples were analyzed in pools, with each pool containing three to four analytes.

human MDR1 = human MDR1 (Homo sapiens, UniProt P08183); test: Bidirectional transport assay, efflux ratio in Abcb1KO-MDCKII hMDR1 cells; details: human, MDCK-MDR1, pH 7.4
human MDR1, sequence (P08183 whole entry): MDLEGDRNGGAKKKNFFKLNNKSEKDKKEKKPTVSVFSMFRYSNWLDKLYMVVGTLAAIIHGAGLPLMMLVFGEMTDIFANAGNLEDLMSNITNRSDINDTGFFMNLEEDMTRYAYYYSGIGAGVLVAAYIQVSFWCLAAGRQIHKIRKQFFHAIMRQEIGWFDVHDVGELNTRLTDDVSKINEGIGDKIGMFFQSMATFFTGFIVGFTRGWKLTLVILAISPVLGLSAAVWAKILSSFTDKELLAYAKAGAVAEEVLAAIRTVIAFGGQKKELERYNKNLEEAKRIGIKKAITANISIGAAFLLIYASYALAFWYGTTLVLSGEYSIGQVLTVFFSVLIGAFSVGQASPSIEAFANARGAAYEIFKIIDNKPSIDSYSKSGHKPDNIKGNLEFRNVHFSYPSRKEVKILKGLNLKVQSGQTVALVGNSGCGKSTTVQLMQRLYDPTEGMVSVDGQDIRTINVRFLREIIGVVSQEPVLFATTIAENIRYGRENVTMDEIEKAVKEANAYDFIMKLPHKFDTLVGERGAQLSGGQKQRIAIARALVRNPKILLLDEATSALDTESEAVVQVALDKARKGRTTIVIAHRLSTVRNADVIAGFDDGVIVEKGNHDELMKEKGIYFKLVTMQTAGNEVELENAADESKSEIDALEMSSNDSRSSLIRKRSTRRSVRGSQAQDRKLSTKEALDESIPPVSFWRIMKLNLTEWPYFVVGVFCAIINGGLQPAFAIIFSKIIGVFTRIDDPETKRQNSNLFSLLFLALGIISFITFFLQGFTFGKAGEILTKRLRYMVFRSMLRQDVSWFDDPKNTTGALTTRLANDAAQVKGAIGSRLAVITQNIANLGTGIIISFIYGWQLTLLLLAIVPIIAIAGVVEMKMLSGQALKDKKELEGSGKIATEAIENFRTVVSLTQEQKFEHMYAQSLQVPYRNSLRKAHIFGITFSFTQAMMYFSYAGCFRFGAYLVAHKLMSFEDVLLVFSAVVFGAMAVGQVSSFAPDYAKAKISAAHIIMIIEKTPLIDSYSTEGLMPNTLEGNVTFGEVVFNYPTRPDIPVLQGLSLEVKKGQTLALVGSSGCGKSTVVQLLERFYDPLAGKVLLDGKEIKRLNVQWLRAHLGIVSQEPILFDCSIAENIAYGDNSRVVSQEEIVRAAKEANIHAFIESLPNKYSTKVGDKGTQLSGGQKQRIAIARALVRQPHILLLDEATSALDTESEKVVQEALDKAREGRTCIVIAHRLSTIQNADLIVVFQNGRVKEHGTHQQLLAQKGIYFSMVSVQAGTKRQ
Method: as §1

rat Mdr1a [4] = molecular target: T1, rat Mdr1a; test: Bidirectional transport assay, efflux ratio in Abcb1KO-MDCKII rMDR1 cells; details: rat, pH 7.4
Method: as §1

mouse Mdr1a [5] = molecular target: T2, mouse Mdr1a; test: Bidirectional transport assay, efflux ratio in Abcb1KO-MDCKII mMDR1 cells; details: mouse, pH 7.4
Method: as §1

cynomolgus monkey Mdr1 = cynomolgus monkey Mdr1 (Macaca fascicularis, UniProt Q8HZQ6); test: Bidirectional transport assay, efflux ratio in Abcb1KO-MDCKII cyMDR1 cells; details: cynomolgus monkey, pH 7.4
cynomolgus monkey Mdr1, sequence (Q8HZQ6 1-1283): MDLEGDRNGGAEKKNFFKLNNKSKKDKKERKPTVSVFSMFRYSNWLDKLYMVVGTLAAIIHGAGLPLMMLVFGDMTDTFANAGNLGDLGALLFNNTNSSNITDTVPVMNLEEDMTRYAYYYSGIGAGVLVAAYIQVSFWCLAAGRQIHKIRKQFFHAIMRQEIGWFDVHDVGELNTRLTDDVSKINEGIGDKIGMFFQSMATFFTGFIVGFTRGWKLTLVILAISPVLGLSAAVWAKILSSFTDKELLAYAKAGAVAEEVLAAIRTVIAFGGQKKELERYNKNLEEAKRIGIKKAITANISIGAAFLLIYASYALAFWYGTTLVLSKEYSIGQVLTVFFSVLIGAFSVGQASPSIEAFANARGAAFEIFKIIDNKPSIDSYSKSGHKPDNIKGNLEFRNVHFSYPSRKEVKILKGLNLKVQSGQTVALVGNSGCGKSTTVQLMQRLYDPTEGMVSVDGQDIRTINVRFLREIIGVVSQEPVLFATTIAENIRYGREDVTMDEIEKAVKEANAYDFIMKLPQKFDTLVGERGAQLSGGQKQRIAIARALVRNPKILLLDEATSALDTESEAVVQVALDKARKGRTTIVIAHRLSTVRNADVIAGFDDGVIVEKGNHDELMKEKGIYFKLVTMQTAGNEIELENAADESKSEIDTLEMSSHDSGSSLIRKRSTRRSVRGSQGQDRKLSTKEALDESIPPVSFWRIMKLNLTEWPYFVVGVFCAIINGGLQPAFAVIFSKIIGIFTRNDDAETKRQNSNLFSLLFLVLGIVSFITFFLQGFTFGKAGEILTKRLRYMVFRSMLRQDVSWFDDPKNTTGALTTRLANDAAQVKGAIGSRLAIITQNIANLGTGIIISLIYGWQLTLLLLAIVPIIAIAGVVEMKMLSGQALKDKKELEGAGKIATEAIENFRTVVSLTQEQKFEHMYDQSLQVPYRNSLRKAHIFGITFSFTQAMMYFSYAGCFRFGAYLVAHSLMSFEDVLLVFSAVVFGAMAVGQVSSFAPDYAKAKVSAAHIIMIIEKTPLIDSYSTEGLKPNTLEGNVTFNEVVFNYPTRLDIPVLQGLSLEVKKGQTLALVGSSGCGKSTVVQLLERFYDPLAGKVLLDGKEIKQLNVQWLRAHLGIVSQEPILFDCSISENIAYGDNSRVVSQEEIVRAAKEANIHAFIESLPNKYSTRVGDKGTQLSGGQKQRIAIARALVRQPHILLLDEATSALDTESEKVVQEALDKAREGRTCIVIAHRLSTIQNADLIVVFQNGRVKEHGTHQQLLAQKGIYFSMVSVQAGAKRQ
Method: as §1

human BCRP = molecular target: T3, human BCRP (Homo sapiens, UniProt Q9UNQ0); test: Bidirectional transport assay, efflux ratio in MDCKII-BCRP cells; details: for efflux ratio at 120 min, 1 µM: human, pH 7.4
T3 sequence (Q9UNQ0 1-655): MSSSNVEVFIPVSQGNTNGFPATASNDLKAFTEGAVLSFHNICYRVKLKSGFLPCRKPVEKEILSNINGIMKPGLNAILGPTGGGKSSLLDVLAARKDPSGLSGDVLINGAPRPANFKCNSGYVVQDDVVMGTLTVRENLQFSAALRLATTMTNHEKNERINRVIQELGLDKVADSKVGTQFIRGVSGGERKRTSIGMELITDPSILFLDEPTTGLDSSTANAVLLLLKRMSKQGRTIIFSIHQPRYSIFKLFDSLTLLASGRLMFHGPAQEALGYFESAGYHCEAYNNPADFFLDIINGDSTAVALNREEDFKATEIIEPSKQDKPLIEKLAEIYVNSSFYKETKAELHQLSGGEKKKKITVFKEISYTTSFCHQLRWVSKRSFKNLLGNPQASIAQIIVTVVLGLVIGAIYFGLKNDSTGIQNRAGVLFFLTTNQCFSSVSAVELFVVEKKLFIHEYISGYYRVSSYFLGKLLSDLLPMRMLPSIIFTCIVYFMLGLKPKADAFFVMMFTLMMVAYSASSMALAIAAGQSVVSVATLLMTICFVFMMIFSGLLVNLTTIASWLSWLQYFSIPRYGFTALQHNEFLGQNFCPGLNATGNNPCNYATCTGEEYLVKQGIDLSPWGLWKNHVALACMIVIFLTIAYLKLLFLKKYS
Method: as §1

Compound	IC50 (rat Mdr1a [1])	IC50 (mouse Mdr1a [2])	efflux ratio at 120 min, 1 µM [3]	efflux ratio at 120 min, 1 µM (human MDR1)	efflux ratio at 120 min, 1 µM (rat Mdr1a [4])	efflux ratio at 120 min, 1 µM (mouse Mdr1a [5])	efflux ratio at 120 min, 1 µM (cynomolgus monkey Mdr1)	efflux ratio at 120 min, 1 µM (human BCRP)	ER in MDCKII BCRP (human BCRP; 1 µM, 120 min, mean ± SD)
C=C[C@H]1C[N@@]2CC[C@H]1C[C@@H]2[C@@H](O)c1ccnc2ccc(OC)cc12 [Quinidine]	2.93 ± 1.43 µM	15 ± 4.06 µM							
COc1cccc2c1C(=O)c1c(O)c3c(c(O)c1C2=O)C[C@@](O)(C(C)=O)C[C@@H]3O[C@H]1C[C@H](N)[C@H](O)[C@H](C)O1 [Daunorubicin]			1.04 ± 0.08	21.7 ± 5.36	16.9 ± 1.99	27.7 ± 2.63	83.1 ± 23.2	62.5 ± 14.1	
COc1cc2ncnc(Nc3ccc(F)c(Cl)c3)c2cc1OCCCN1CCOCC1 [Gefitinib]			0.93 ± 0.11	30.5 ± 1.66	9.86 ± 0.85	8.98 ± 0.82	4.65 ± 0.62	45.1 ± 7.77	
CC/C(=C(\c1ccccc1)c1ccc(OCCN(C)C)cc1)c1ccccc1 [Tamoxifen]			2.25 ± 1.24	1.65 ± 0.24	1.61 ± 0.18	2.26 ± 0.76	1.81 ± 0.51	0.81 ± 0.14	
COc1ccc2c(c1)[C@]13CCCC[C@@H]1[C@H](C2)N(C)CC3 [Dextromethorphan]			0.98 ± 0.1	1.03 ± 0.08	0.94 ± 0.09	0.78 ± 0.05	0.75 ± 0.06	0.66 ± 0.08	
CN(C)CCOC(C)(c1ccccc1)c1ccccn1 (centres unmarked) [Doxylamine]			0.83 ± 0.03	1.68 ± 0.04	1.39 ± 0.03	1.25 ± 0.06	0.96 ± 0.06	0.97 ± 0.09	
CNC(=C[N+](=O)[O-])NCCSCc1ccc(CN(C)C)o1 [Ranitidine]			0.91 ± 0.06	2.89 ± 0.15	2.63 ± 0.19	2.09 ± 0.3	2.14 ± 0.25	10.3 ± 0.96	
CC(=O)O[C@H]1C(=O)[C@@]2(C)[C@H]([C@H](OC(=O)c3ccccc3)[C@]3(O)C[C@H](OC(=O)[C@H](O)[C@@H](NC(=O)c4ccccc4)c4ccccc4)C(C)=C1C3(C)C)[C@]1(OC(C)=O)CO[C@@H]1C[C@@H]2O [Paclitaxel]			2.52 ± 0.51	40.2 ± 12.6	82.9 ± 41.1	57.7 ± 17	33.4 ± 5.69	63.8 ± 28.5	
O=C1c2c(O)ccc(O)c2C(=O)c2c(NCCNCCO)ccc(NCCNCCO)c21 [Mitoxantrone]			1.15 ± 0.14	5.66 ± 0.54	17.6 ± 1.56	28.6 ± 4.05	40.3 ± 2.47	55.6 ± 10.8	
CCN1CCCC1CNC(=O)c1cc(S(=O)(=O)CC)c(N)cc1OC (centres unmarked) [Amisulpride]			1.19 ± 0.07	18.7 ± 1.92	10.5 ± 1.16	11.8 ± 0.85	6.22 ± 0.32	28.9 ± 3.47	
CC(C)C[C@H]1C(=O)N2CCC[C@H]2[C@]2(O)O[C@](NC(=O)[C@@H]3C=C4c5cccc6[nH]c(Br)c(c56)C[C@H]4N(C)C3)(C(C)C)C(=O)N12 [Bromocriptine]			0.68 ± 0.07	4.85 ± 0.39	1.75 ± 0.09	1.39 ± 0.1	1.08 ± 0.67	0.52 ± 0.05	
CCN(CC)CCNC(=O)c1cc(Cl)c(N)cc1OC [Metoclopramide]			0.85 ± 0.07	5.55 ± 0.43	3.02 ± 0.28	2.55 ± 0.21	1.44 ± 0.14	2.42 ± 0.33	
Cc1cccc(C)c1OCC(C)N (centres unmarked) [Mexiletine]			0.36 ± 0.05	0.44 ± 0.03	0.42 ± 0.08	0.64 ± 0.16	0.51 ± 0.15	0.71 ± 0.05	
Cc1ncc2n1-c1ccc(Cl)cc1C(c1ccccc1F)=NC2 [Midazolam]			0.43 ± 0.04	0.53 ± 0.03	0.28 ± 0.06	0.4 ± 0.06	0.43 ± 0.05	0.57 ± 0.06	
CN(C)CCc1c[nH]c2ccc(C[C@H]3COC(=O)N3)cc12 [Zolmitriptan]			0.97 ± 0.09	4.3 ± 0.26	2.69 ± 0.16	1.99 ± 0.16	2.24 ± 0.22	3.94 ± 0.25	
CN/C(=N/CCSCc1nc[nH]c1C)NC#N [Cimetidine]			1.42 ± 0.19	6.98 ± 0.72	9.86 ± 0.98	2.83 ± 0.37	2.75 ± 0.32	72.5 ± 11.5	
Cc1nc2n(c(=O)c1CCN1CCC(c3noc4cc(F)ccc34)CC1)CCCC2O (centres unmarked) [Paliperidone]			0.79 ± 0.1	19.8 ± 2.06	6.06 ± 1.45	8.26 ± 0.88	2.47 ± 0.41	5.82 ± 1.79	
CCNc1nc(Cl)nc(NC(C)C)n1 [Atrazine]			0.52 ± 0.04	0.52 ± 0.04	0.46 ± 0.04	0.59 ± 0.1	0.54 ± 0.03	0.63 ± 0.02	
Clc1cccc(Cl)c1N=C1NCCN1 [Clonidine]			0.93 ± 0.03	0.78 ± 0.02	0.98 ± 0.05	0.99 ± 0.06	0.8 ± 0.05	0.89 ± 0.04	
COc1cc2nc(N3CCN(C(=O)c4ccco4)CC3)nc(N)c2cc1OC [Prazosin]			0.72 ± 0.03	9.35 ± 0.45	6.5 ± 0.22	5.14 ± 0.39	2.42 ± 0.15		14.79 ± 1.68
CC(C)N(CCC(C(N)=O)(c1ccccc1)c1ccccn1)C(C)C (centres unmarked) [Disopyramide]			0.71 ± 0.12	34.7 ± 2.68	21.1 ± 3.7	11.2 ± 0.8	17.2 ± 3.18	4.2 ± 1.09	
CN(C)CCC=C1c2ccccc2COc2ccccc21 [Doxepin]			0.68 ± 0.09	0.79 ± 0.13	1.09 ± 0.16	0.91 ± 0.11	0.71 ± 0.06	0.54 ± 0.07	
NC(=O)N1c2ccccc2C=Cc2ccccc21 [Carbamazepine]			0.61 ± 0.06	0.62 ± 0.06	0.86 ± 0.08	0.79 ± 0.07	0.75 ± 0.07	0.86 ± 0.12	
CN(C)CCCN1c2ccccc2CCc2ccccc21 [Imipramine]			0.62 ± 0.04	1.08 ± 0.05	0.83 ± 0.08	0.9 ± 0.05	0.82 ± 0.09	0.6 ± 0.06	
